Reference: ChEMBL document CHEMBL1201862, “PubChem BioAssay data set” (2004)
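Each compound was tested at five concentrations against cells in 96-well plates for 48 hours. The concentration for 50% growth inhibition is given as GI50.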 Calls of active or inactive are those of the source. Rule as the data show it: active = GI50 up to about 1.1 µM and inactive = higher.

How the values were obtained:
Assay in all cases: DTP human tumour cell line panel, 48 h
786-0 = tested on: 786-0
A498 = tested on: A498
A549 = tested on: A549
ACHN = tested on: ACHN
CAKI-1 = tested on: CAKI-1
CCRF-CEM = tested on: CCRF-CEM
COLO 205 = tested on: COLO 205
DLD-1 = tested on: DLD-1
DMS-273 = tested on: DMS-273
EKVX = tested on: EKVX
HCC 2998 = tested on: HCC 2998
HCT-116 = tested on: HCT-116
HCT-15 = tested on: HCT-15
HL-60 = tested on: HL-60
HOP-18 = tested on: HOP-18
HOP-62 = tested on: HOP-62
HOP-92 = tested on: HOP-92
HT-29 = tested on: HT-29
IGROV-1 = tested on: IGROV-1
KM-20L2 = tested on: KM-20L2
KM12 = tested on: KM12
LXFL 529 = tested on: LXFL 529
M14 = tested on: M14
M19-MEL = tested on: M19-MEL
MOLT-4 = tested on: MOLT-4
Malme-3M = tested on: Malme-3M
NCI-H226 = tested on: NCI-H226
NCI-H23 = tested on: NCI-H23
NCI-H460 = tested on: NCI-H460
NCI-H522 = tested on: NCI-H522
OVCAR-3 = tested on: OVCAR-3
OVCAR-4 = tested on: OVCAR-4
OVCAR-8 = tested on: OVCAR-8
RXF 393 = tested on: RXF 393
SF-268 = tested on: SF-268
SF-295 = tested on: SF-295
SF-539 = tested on: SF-539
SK-MEL-28 = tested on: SK-MEL-28
SK-MEL-2 = tested on: SK-MEL-2
SK-MEL-5 = tested on: SK-MEL-5
SK-OV-3 = tested on: SK-OV-3
SN12C = tested on: SN12C
SNB-19 = tested on: SNB-19
SNB-75 = tested on: SNB-75
SNB-78 = tested on: SNB-78
SR = tested on: SR
SW-620 = tested on: SW-620
TK-10 = tested on: TK-10
U-251 = tested on: U-251
UACC-257 = tested on: UACC-257
UACC-62 = tested on: UACC-62
UO-31 = tested on: UO-31
DMS-114 = tested on: DMS-114
K562 = tested on: K562
LOX IMVI = tested on: LOX IMVI
OVCAR-5 = tested on: OVCAR-5
RPMI-8226 = tested on: RPMI-8226

Measured: GI50

CCOC(=O)C1=C(Nc2ccc(Br)cc2)OCC1=O
> 100 µM: HCT-15
inactive: 786-0 > 100 µM | A498 > 100 µM | A549 > 100 µM | ACHN > 100 µM | CAKI-1 > 100 µM | CCRF-CEM > 100 µM | COLO 205 > 100 µM | DLD-1 > 100 µM | DMS-273 > 100 µM | EKVX > 100 µM | HCC 2998 > 100 µM | HCT-116 > 100 µM | HL-60 17.9 µM | HOP-18 > 100 µM | HOP-62 > 100 µM | HOP-92 > 100 µM | HT-29 > 100 µM | IGROV-1 > 100 µM | KM-20L2 > 100 µM | KM12 > 100 µM | LXFL 529 > 100 µM | M14 > 100 µM | M19-MEL > 100 µM | MOLT-4 > 100 µM | Malme-3M > 100 µM | NCI-H226 > 100 µM | NCI-H23 > 100 µM | NCI-H460 > 100 µM | NCI-H522 > 100 µM | OVCAR-3 > 100 µM | OVCAR-4 > 100 µM | OVCAR-8 > 100 µM | RXF 393 > 100 µM | SF-268 > 100 µM | SF-295 > 100 µM | SF-539 > 100 µM | SK-MEL-28 > 100 µM | SK-MEL-2 > 100 µM | SK-MEL-5 > 100 µM | SK-OV-3 > 100 µM | SN12C > 100 µM | SNB-19 > 100 µM | SNB-75 > 100 µM | SNB-78 > 100 µM | SR > 100 µM | SW-620 > 100 µM | TK-10 > 100 µM | U-251 > 100 µM | UACC-257 > 100 µM | UACC-62 > 100 µM | UO-31 > 100 µM

COC(=O)c1cc(C(=O)OC)c(CC(=O)C(=O)NC2C3CC4CC(C3)CC2C4)nc1CC(=O)C(=O)NC1C2CC3CC(C2)CC1C3 (centres undefined)
> 100 µM: HCT-15
inactive: 786-0 > 100 µM | A498 > 100 µM | A549 > 100 µM | ACHN > 100 µM | CAKI-1 > 100 µM | CCRF-CEM > 100 µM | COLO 205 > 100 µM | DLD-1 > 100 µM | DMS-114 > 100 µM | DMS-273 > 100 µM | EKVX > 100 µM | HCC 2998 > 100 µM | HCT-116 > 100 µM | HL-60 > 100 µM | HOP-18 > 100 µM | HOP-62 > 100 µM | HOP-92 74.6 µM | HT-29 > 100 µM | IGROV-1 > 100 µM | K562 > 100 µM | KM-20L2 > 100 µM | KM12 > 100 µM | LOX IMVI > 100 µM | LXFL 529 > 100 µM | M14 > 100 µM | M19-MEL > 100 µM | MOLT-4 37.3 µM | Malme-3M > 100 µM | NCI-H226 > 100 µM | NCI-H23 > 100 µM | NCI-H460 > 100 µM | NCI-H522 > 100 µM | OVCAR-3 > 100 µM | OVCAR-4 > 100 µM | OVCAR-5 > 100 µM | OVCAR-8 > 100 µM | RPMI-8226 > 100 µM | RXF 393 > 100 µM | SF-268 > 100 µM | SF-295 > 100 µM | SF-539 > 100 µM | SK-MEL-28 > 100 µM | SK-MEL-2 > 100 µM | SK-MEL-5 > 100 µM | SK-OV-3 > 100 µM | SN12C > 100 µM | SNB-19 > 100 µM | SNB-75 > 100 µM | SNB-78 > 100 µM | SR 8.69 µM | SW-620 > 100 µM | TK-10 > 100 µM | U-251 > 100 µM | UACC-257 > 100 µM | UACC-62 > 100 µM | UO-31 > 100 µM
